Test results published in patent publication US20050096254A1, “Peptide deformylase activated prodrugs” (priority 2002, published 2005).
Converted amounts (≈) assume the structure as drawn. Read-outs that look alike come from different tables or passages of the source.

Key:
[1] = Stability in PBS, pH 7.4; type: physicochemical; conditions: for half-life: pH 7.4, read-out: Stability PBS, pH 7.4 t1/2 (converted); for Stability PBS, pH 7.4 % left after 6 hrs: pH 7.4, after 6 hrs
[2] = Stability in Mueller Hinton Broth; type: physicochemical; conditions: for half-life: read-out: Stability Mueller Hinton Broth t1/2 (converted)
[3] = Stability in Mouse Plasma; type: in vitro ADME; conditions: for half-life: read-out: Stability Mouse Plasma t1/2
[4] = Stability in Human Plasma; type: in vitro ADME; conditions: for half-life: read-out: Stability Human Plasma t1/2
[5] = tested on: E. coli; test: MIC susceptibility testing (modified NCCLS); type: cell-based; conditions: Escherichia coli, ATCC25922; Table 6, E. coli ATCC 25922; read-out: MIC
Description: (§1) The NCCLS (National Committee for Clinical Laboratory Standards), method to determine MIC's of antimicrobial compounds is modified for high-throughput screening. All stocks of tested compounds are prepared in either water or in DMSO depending on solubility. At the highest concentration, DMSO content should not exceed 0.5%. Briefly, twenty 2-fold serial dilutions of test compounds from the highest concentration is made in a 384-well microtiter plate. Each well is inoculated with testing bacteria in broth to a final concentration of approximately 1-1.5×10^6 cells/ml. Bacterial growth is determined by the increase of optical density at 600 nm using a microplate reader (Tecan SpectraFluor Plus).

[6] = tested on: E. faecalis; test: MIC susceptibility testing (modified NCCLS); type: cell-based; conditions: Enterococcus faecalis, ATCC29212; Table 6, E. faecalis ATCC 29212; read-out: MIC
Description: as §1

[7] = tested on: S. aureus; test: MIC susceptibility testing (modified NCCLS); type: cell-based; conditions: Staphylococcus aureus
Description: as §1

[8] = tested on: P. aeruginosa; test: MIC susceptibility testing (modified NCCLS); type: cell-based; conditions: Pseudomonas aeruginosa, ATCC27853; Table 6, P. aeruginosa ATCC 27853; read-out: MIC
Description: as §1, with “Each well is inoculated with testing bacteria in broth to a final concentration of approximately 1-1.5×10^6 cells/ml.” left out

[9] = target: PDF (Escherichia coli, UniProt P0A6K3); conditions: Wei et al. (2000); read-out: Ki (competitive PDF inhibitor); cited from earlier work
Sequence of PDF (P0A6K3 whole entry): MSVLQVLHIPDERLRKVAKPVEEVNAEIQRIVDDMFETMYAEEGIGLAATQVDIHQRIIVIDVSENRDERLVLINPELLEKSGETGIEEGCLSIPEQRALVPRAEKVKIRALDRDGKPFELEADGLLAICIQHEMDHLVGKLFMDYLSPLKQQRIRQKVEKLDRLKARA

Work on `CSCCC(NC=O)C(=O)NC(CC(C)C)C(=O)Oc1c(Br)cc(CO)cc1Br` (centres unmarked) [NB3144, 2-(2-formylamino-4-methylsulfanyl-butyrylamino)-4-methyl-pentanoic Acid 2,6-dibromo-hydroxymethyl-phenyl Ester] yielded a half-life [1] of 3.3 h and a half-life [2] of 2.9 h.

In the case of `CSCCC(NC=O)C(=O)NC(CC(C)C)C(=O)Oc1c(-c2ccccc2)cc(CO)cc1-c1ccccc1` (centres unmarked) [NB3145, 2-(2-formylamino-4-methylsulfanyl-butyrylamino)-4-methyl-pentanoic Acid 5′-hydroxymethyl-[1,1′;3′,1″]terphenyl-2′-yl Ester], the “Stability PBS, pH 7.4 % left after 6 hrs” value [1] is reported as 99%, the half-life [1] is reported as over 12 h and the “Stability Mueller Hinton Broth % left after 6 hrs” value [2] is reported as 99%. The half-life [2] was over 12 h, the “Stability Mouse Plasma % left after 10 min” value (shortened to “Stability Mouse Plasma % left”) [3] was 94% and the half-life [3] was over 0.333 h. The “Stability Human Plasma % left after 120 min” value [4] was 94% and the half-life [4] was over 2 h.

In the case of `COc1cc(CO)cc(Br)c1OC(=O)C(CC(C)C)NC(=O)C(CCSC)NC=O` (centres unmarked) [NB3162, 2-(2-formylamino-4-methylsulfanyl-butyrylamino)-4-methyl-pentanoic Acid 2-bromo-4-hydroxymethyl-6-methoxy-phenyl Ester], the “Stability PBS, pH 7.4 % left after 6 hrs” value [1] is reported as 98%, the half-life [1] is reported as over 12 h and the “Stability Mueller Hinton Broth % left after 6 hrs” value [2] is reported as 91%. It also gave a half-life [2] of over 12 h, a half-life [3] of 0.148 h and a half-life [4] of 0.177 h.

For `CSCCC(NC=O)C(=O)NC(CC(C)C)C(=O)Oc1c(C)cc(CO)cc1C` (centres unmarked) [NB3165, 2-(2-formylamino-4-methylsulfanyl-butyrylamino)-4-methyl-pentanoic Acid 4-hydroxymethyl-2,6-dimethyl-phenyl Ester], the “Stability PBS, pH 7.4 % left after 6 hrs” value [1] was 85%, the half-life [1] was over 12 h and the “Stability Mueller Hinton Broth % left after 6 hrs” value [2] was 95%. For the same compound, the half-life [2] was over 12 h, the “Stability Mouse Plasma % left” value [3] was 94% and the half-life [3] was over 0.333 h. The “Stability Human Plasma % left after 120 min” value [4] was 94% and the half-life [4] was over 2 h.

With `CSCCC(NC=O)C(=O)NC(CC(C)C)C(=O)Oc1c(Br)cc(CO)cc1-c1ccco1` (centres unmarked) [NB3177, 2-(2-Formylamino-4-methylsulfanyl-butyrylamino)-4-methyl-pentanoic Acid 2-bromo-6furan-2-yl-4-hydroxymethyl-phenyl Ester] the “Stability PBS, pH 7.4 % left after 6 hrs” value [1] was 95%, the half-life [1] was over 12 h and the “Stability Mueller Hinton Broth % left after 6 hrs” value [2] was 89%. The half-life [2] was over 12 h, the “Stability Mouse Plasma % left” value [3] was 88% and the half-life [3] was over 0.333 h. The half-life [4] was 0.533 h.

`CCn1cc(C(=O)O)c(=O)c2cc(F)c(N3CCNCC3)cc21` [Norfloxacin, norfloxacin, reference compound] gave an MIC [5] of 15.6 ng/mL (≈ 0.0489 µM), an MIC [6] of 1000 ng/mL (≈ 3.13 µM) and an MIC ([7]; ATCC29213, Table 6, S. aureus (MS) ATCC 29213, read-out: MIC) of 500 ng/mL (≈ 1.57 µM). It also gave an MIC ([7]; ATCC33591, Table 6, S. aureus (MR) ATCC 33591, read-out: MIC) of 1000 ng/mL (≈ 3.13 µM) and an MIC [8] of 500 ng/mL (≈ 1.57 µM).

Work on `Oc1cc(Cl)ccc1Oc1ccc(Cl)cc1Cl` [Triclosan, triclosan, reference compound] yielded an MIC ([7]; ATCC 11632 / MSSA) of 1.95 ng/mL (≈ 0.00675 µM), an MIC ([7]; ATCC 13301 / MSSA) of 0.488 ng/mL (≈ 0.00169 µM) and an MIC ([7]; ATCC 14154 / MSSA) of 1.95 ng/mL (≈ 0.00675 µM). It also gave an MIC ([7]; ATCC 33591 / MSSA) of 7.81 ng/mL (≈ 0.027 µM), an MIC ([7]; ATCC 33592 / MSSA) of 3.91 ng/mL (≈ 0.0135 µM) and an MIC ([7]; ATCC 33593 / MSSA) of 0.977 ng/mL (≈ 0.00337 µM). It also gave an MIC ([7]; ATCC 43300 / MSSA) of 1.95 ng/mL (≈ 0.00675 µM), an MIC ([7]; ATCC 700260 / MSSA) of 0.244 ng/mL (≈ 0.000843 µM) and an MIC ([7]; ATCC 700698 / MSSA) of 3.91 ng/mL (≈ 0.0135 µM). For the same compound, the MIC ([7]; ATCC 700699 / MSSA) was at least 4000 ng/mL, the MIC ([7]; ATCC 700787 / MSSA) was 1.95 ng/mL (≈ 0.00675 µM) and the MIC ([7]; ATCC 700788 / MSSA) was 31.2 ng/mL (≈ 0.108 µM). The MIC ([7]; ATCC 700789 / MSSA) was 15.6 ng/mL (≈ 0.054 µM).

In the case of `CCCCC(CS)C(=O)NC(CCCNC(=N)N)C(=O)Nc1ccc2ccccc2c1` (centres unmarked) [optimal inhibitor], the Ki [9] is listed as 15 nM.
